Assay results reported in US20260248717A1, “METHOD OF TREATING LOWER TRACT UROTHELIAL CANCER” (TARIS Biomedical LLC, priority 2016, published 2026).

What was measured:
[1] = Comparison of urine gemcitabine and dFdU between minipig study and human phase IB study; type: in vivo; conditions: for urine concentrations: mini pig study versus human phase IB study (FIG. 10)
[2] = in vivo
Procedure: The ongoing Phase 1b study, TAR-200-101, is designed to evaluate the safety and tolerability of up to 2 dose cycles of gemcitabine administered intravesicularly at a dose of 225 mg for 7 days separated by a rest period of 14 days using the GemRIS system, over a 28-day period in patients with confirmed muscle-invasive transitional cell carcinoma of the bladder (>/=clinical and pathologic stage pT2a), who are scheduled to undergo radical cystectomy (RC) with concomitant lymphadenectomy.
Gemcitabine Releasing Intravesical System (GemRIS) is placed into the bladder through an inserter on Study Day 0 and is removed on Study Day 7. GemRIS releases gemcitabine gradually during the 7 day indwelling time. A second GemRIS is placed in the bladder on Study Day 21 and is removed on Study Day 28 which is the day of the TURBT. GemRIS is a passive, nonresorbable gemcitabine-releasing intravesicular (intravesical) system whose primary mode of action is the controlled release of gemcitabine into the bladder over a 7 day period.
The primary outcome measures are the number of participants with treatment emergent adverse events (TEAEs) coded with MedDRA and graded for severity with CTCAE v4.0. The secondary outcome measures are the number and percentage of participants who are tolerant of GemRIS indwelling on days 1-7 and 21-28. Plasma and urine levels of dFdC and dFdU are also measured. […] Cmax, plasma dFdU Analysis of Cmax (maximum concentration achieved over time) of diflourodeoxyuridine (dFdU) in plasma. [Time Frame: From Day 0 up to Day 28] • 6. Tmax, plasma dFdU. Analysis of Tmax (Day at which maximum concentration was achieved) of diflourodeoxyuridine (dFdU) in plasma. [Time Frame: From Day 0 up to Day 28] • 7. Cavg, plasma dFdU. Analysis of Descriptive statistics (e.g. sample size, mean and median, quartiles, minimum and maximum and box plots) of the concentration of diflourodeoxyuridine (dFdU) in plasma. [Time Frame: From Day 0 up to Day 28] • 8. Cmax, plasma dFdC. Analysis of Cmax (maximum concentration achieved over time) of gemcitabine (deoxydifluorocytidine hydrochloride dFdC) in plasma. [Time Frame: From Day 0 up to Day 28] • 9. Tmax, plasma dFdC. Analysis of Tmax (Day at which maximum concentration was achieved) of gemcitabine (deoxydifluorocytidine hydrochloride—dFdC) in plasma [Time Frame: From Day 0 up to Day 28] • 10. Cavg, plasma dFdC. Analysis of Descriptive statistics (e.g. sample size, mean and median, quartiles, minimum and maximum and box plots) of the concentration of gemcitabine (deoxydifluorocytidine hydrochloride—dFdC) in plasma [Time Frame: From Day 0 up to Day 28]. • 11. Cmax, urine dFdU (Arm 1 only). Analysis of Cmax (maximum concentration achieved over time) of diflourodeoxyuridine (dFdU) in urine. [Time Frame: From Day 0 up to Day 28] • 12. Tmax, urine dFdU (Arm 1 only). Analysis of Cmax (maximum concentration achieved over time) of diflourodeoxyuridine (dFdU) in urine. [Time Frame: From Day 0 up to Day 28] • 13. Tmax, urine dFdU (Arm 1 only). Analysis of Cmax (maximum concentration achieved over time) of diflourodeoxyuridine (dFdU) in urine. [Time Frame: From Day 0 up to Day 28] • 14. Cavg, urine dFdU (Arm 1 only). Analysis of Descriptive statistics (e.g. sample size, mean and median, quartiles, minimum and maximum and box plots) of the concentration of diflourodeoxyuridine (dFdU) in urine. [Time Frame: From Day 0 up to Day 28] • 15. Cmax, urine dFdC (Arm 1 only).

[3] = system: NBT-II rat bladder tumor cells; test: Syngeneic rat bladder tumor model, immune effects of continuous local gemcitabine; type: in vivo, Wistar rats
Procedure: A syngeneic rat model was developed to assess treatment efficacy and immune effects of continuous local administration to the bladder. Wistar rats were cannulated on day 0 and injected with NBT-II rat bladder tumor cells on day 3. Tumors were allowed to grow for 5 days prior to the start of perfusion on day 8. On days 8-13 of the study gemcitabine was perfused at a concentration of 90 μg/ml or 180 μg/ml. The rats were euthanized on day 14. Samples from the tumor, spleen, blood and plasma were collected for histopathology and immunohistochemistry, flow cytometry, and cytokine profiling.
The level of activated CD8+ and CD4+ T cells were also measured in the tumor microenvironment compared to the level of CD+4 and CD8+ regulatory cells.
Plasma TGFβ and IL-10 levels were also measured following delivery of gemcitabine. […] Inhibition of TGFβ is known to impair Treg activation.

[4] = Minipig model, local continuous gemcitabine from an intravesical device for one week; type: in vivo, minipigs; conditions: device removed at day 7; tissue levels estimated from gemcitabine and active metabolite in urine (FIG. 2)
Procedure: A minipig model was developed to investigate the effect of administering gemcitabine to the bladder locally and continuously using an intravesicular (intravesical) device. For this study, gemcitabine was continuously administered to minipigs for one week using an intravesicular (intravesical) device. The intravesicular (intravesical) device was removed at day 7. The concentration of gemcitabine and active metabolite was measured in the urine of the minipigs following removal of the device. Based upon the level of gemcitabine and active metabolite in the urine, the therapeutic gemcitabine levels in the bladder tissue were estimated.

[5] = system: T24 human bladder cancer cells; test: Orthotopic bladder cancer model in rats, continuous gemcitabine perfusion of the bladder; type: in vivo, Athymic nude rats
Description: After day 11, the bladders were removed and subject to histological analysis.

[6] = rat, in vivo
Procedure: An orthotopic bladder cancer model was developed in rats to allow evaluation of the efficacy of continuous administration of gemcitabine to the bladder on treatment of a human bladder cancer cell line. Athymic nude rats were cannulated on day 0. The rats were injected with fluorescently labeled T24 human bladder cancer cells on day 3. On day 5 of the study, tumors were observable. Gemcitabine perfusion started on day 6 and continued until day 11. Three concentrations of gemcitabine were tested: 90 μg/ml, 180 μg/ml, and 350 μg/ml.

[7] = Pilot pharmacokinetic study, 14C-gemcitabine perfused via intra-urinary bladder cannula; type: in vivo, male Sprague-Dawley rats; conditions: 3.85 mg/mL, 300 μL/hr
Procedure: A pilot study performed was using male Sprague-Dawley rats to determine the pharmacokinetics and pharmacodynamics properties of administering gemcitabine locally and continuously to the bladder. Rats were fitted with intra-urinary bladder cannula (IUBC) and radiolabeled ^14C-gemcitabine was perfused for 6 or 24 hours at a rate of 300 μL/hr at a concentration of 3.85 mg/mL of gemcitabine. The concentration of gemcitabine in various tissue layers were measured.

| SMILES | urine concentrations [1] | plasma concentrations of dFdU (quantifiable samples) [2] | plasma samples with low but quantifiable dFdU [2] | urine levels [2] | levels of gemcitabine excreted in the urine ([1]; minipig study versus human phase IB trial (FIG. 9)) | plasma TGFβ level compared to control animals ([3]; 180 μg/mL gemcitabine (FIG. 6)) | plasma IL-10 level ([3]; 180 μg/mL gemcitabine, versus untreated control rats (FIG. 7)) | level of activated CD4+ and CD8+ cells in the spleen ([3]; gemcitabine perfusion days 8-13, versus untreated control rats (FIG. 5)) | ratio of regulatory T cells to activated CD4+ and CD8+ T cells in the tumor microenvironment ([3]; perfusion 90 or 180 μg/mL, days 8-13 (FIG. 4)) | therapeutically relevant gemcitabine levels in bladder tissue after device removal [4] | tumor volume compared to untreated control (tumor size as net average intensity, FIG. 1) ([5]; 90 μg/ml gemcitabine, continuous perfusion day 6 to day 11, five day study period) | anti-tumor effect with increasing concentration ([5]; 90 μg/ml, 180 μg/ml and 350 μg/ml gemcitabine perfusion) | plasma concentrations of gemcitabine ([2]; human) | hematuria [6] | urine and blood parameters [6] | distribution of radiolabel among bladder tissue layers ([7]; perfused for 6 or 24 hours) | penetration into bladder tissue layers ([7]; perfused for 6 or 24 hours (FIG. 3)) |
| --- | --- | --- | --- | --- | --- | --- | --- | --- | --- | --- | --- | --- | --- | --- | --- | --- | --- |
| O=c1ccn(C2OC(CO)C(O)C2(F)F)c(=O)[nH]1 (stereo not shown) [dFdU, diflourodeoxyuridine] | comparable | 104 to 284 ng/mL | 10 of 55 | measurable |  |  |  |  |  |  |  |  |  |  |  |  |  |
| Nc1ccn([C@@H]2O[C@H](CO)[C@@H](O)C2(F)F)c(=O)n1 [gemcitabine, 2′,2′-difluorodeoxycytidine] | comparable |  |  | measurable | comparable | decreased | increased | increased | decreased | persisted well after the device was removed | significant reduction in tumor volume | increased with administration of increasing concentrations | < 100 ng/mL | observed in all perfusion animals | No major significant differences | most concentrated in the adventitia and epithelium, followed by muscle and lamina propria | able to penetrate into deeper bladder tissues |
